Patent US9533071B2, “Wound healing compositions including cyanoacrylate monomers and phenytoin” (Adhezion Biomedical, LLC, priority 2010, dated 2017)

What was measured:
[1] = Incorporation (miscibility) of phenytoin into cyanoacrylate monomers; assay type: physicochemical
Experimental: According to the present invention, an effective amount of wound healing promoter, is incorporated into the pre-stabilized liquid monomeric cyanoacrylate adhesive compositions to form a homogeneous liquid adhesive product. […] After continuous stirring at this elevated temperature, the mixture of cyanaocrylate monomers and wound healing accelerator becomes a homogeneous solution within about 1 to 2 hours. Standard mixing equipment and techniques are suitable. The 5,5-[…], including phenytoin are readily available from major chemical distributors. […] Table 1 below summarizes the results of incorporating phenytoin into different cyanoacrylate monomer solutions at the elevated temperatures. […] At the elevated temperatures, phenytoin is soluble in both 2-octyl cyanoacrylate (OCA) and n-butyl cyanoacrylate (BCA). It is also interesting to note that phenytoin is more soluble in shorter alkyl chain cyanoacrylate (BCA) than in longer alkyl chain cyanoacrylate (OCA).

[2] = tested on: surgical wounds of periodontal patients; settings: topical; cited from earlier work
bacterial load of wounds = settings: clinical studies; cited from earlier work

In the case of `O=C1NC(=O)C(c2ccccc2)(c2ccccc2)N1` [phenytoin, 5,5-diphenylhydantoin], the “Solubility in 2-octyl cyanoacrylate (OCA)” value ([1]; elevated temperatures) is reported as “soluble”, the “Solubility in n-butyl cyanoacrylate (BCA)” value ([1]; elevated temperatures) is reported as “soluble” and the “Solubility in 2-octyl cyanoacrylate (OCA) monomer” value ([1]; room temperature) is reported as “not soluble”. The “Solubility in BCA compared with OCA” value ([1]; shorter vs longer alkyl chain cyanoacrylate) was “more soluble”, the Inflammation and pain [2] was “reduced inflammation and pain” and the Wound healing [2] was “accelerated wound healing”. For the same compound, the “Bacterial load of wounds” value (bacterial load of wounds) was “decrease the bacterial load of wounds”.
